Measurements taken from patent US20260041653A1, “AN HDAC INHIBITOR FOR TREATING CANCER WITH A MODIFIED STK11 ACTIVITY OR EXPRESSION” (Tango Therapeutics, Inc., priority 2022, published 2026).

Biological target: CYP2C19 (Homo sapiens, UniProt P33261)
Assay: Metabolism by recombinant human CYP2C19
Type: in vitro ADME
Conditions: read-out: terminal half life (T1/2), rh CYP2C19
Method: Drug metabolizing enzymes involved in the biotransformation of Compound I were investigated using human liver microsomes (HLM) and recombinant enzymes. Compound I was stable in HLMs (>93% remaining after 240 minutes of incubation with HLM protein concentration at 0.6 mg/ml). CYP selective inhibitor experiments were not performed due to lack of appreciable Compound I turnover.

Sequence of CYP2C19 (P33261 whole entry): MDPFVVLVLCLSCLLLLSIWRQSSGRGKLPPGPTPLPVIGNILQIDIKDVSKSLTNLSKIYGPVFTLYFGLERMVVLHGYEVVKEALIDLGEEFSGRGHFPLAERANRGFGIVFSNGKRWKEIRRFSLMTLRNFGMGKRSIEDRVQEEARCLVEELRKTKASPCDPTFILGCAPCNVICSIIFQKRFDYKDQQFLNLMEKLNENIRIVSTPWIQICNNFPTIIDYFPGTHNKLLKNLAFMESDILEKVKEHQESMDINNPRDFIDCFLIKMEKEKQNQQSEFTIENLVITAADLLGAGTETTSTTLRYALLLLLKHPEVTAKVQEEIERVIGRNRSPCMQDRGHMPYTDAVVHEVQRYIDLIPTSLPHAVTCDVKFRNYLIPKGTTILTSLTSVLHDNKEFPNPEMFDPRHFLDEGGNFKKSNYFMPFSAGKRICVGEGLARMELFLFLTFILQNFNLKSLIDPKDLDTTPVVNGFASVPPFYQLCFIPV

In the case of `C[S@@](=N)(=O)c1ccc(C(=O)Nc2cc(-c3ccc(F)cc3)ccc2N)cc1` [Compound I, (R)—N-(4-amino-4′-fluoro-[1,1′-biphenyl]-3-yl)-4-(S-methylsulfonimidoyl)benzamide], the half-life is reported as > 1 h.
